Experimental data: patent US5326788A, “Biological fluid purification system” (priority 1992, dated 1994)

Key:
[1] = target: purified reverse transcriptase from murine leukemia virus (Moloney murine leukemia virus isolate Shinnick, UniProt P03355); experiment: Direct incubation with purified reverse transcriptase; assay type: biochemical
Protocol: (§1) In FIG. 1, open squares represent hypericin-treated and pluses represent pseudohypericin treated HIV. […] Inactivation of the reverse transcriptase activity of the virions was not a result of a direct inhibition of reverse transcriptase activity per se, as incubation of either compound directly with purified reverse transcriptase from either avian myeloblastosis virus or murine leukemia virus had no effect on enzyme activity. Furthermore, aliquots of HIV derived from these H9 cell cultures lost the ability to replicate in culture when exposed to as little as 0.77 micrograms/ml of hypericin.

[2] = system: purified reverse transcriptase from avian myeloblastosis virus; experiment: as above; assay type: biochemical
Protocol: as §1

HIV-1 env = experiment: Syncytia assay, cell line expressing only envelope proteins of HIV-1 IIIb with Supt-1 cells; assay type: cell-based; conditions: 24 hours
Protocol: (§2) In order to assess the effects of Hy and Ps on the ability of HIV to form syncytia, the following experiments were performed. For the analysis of HIV-1, an entry syncytia assay was performed by co-culturing H9 cells (described in Popovic, M. et al. Science 224: 497-500, 1984) infected with the IIIb isolate of HIV with uninfected Supt-1 cells (Walker, B. D. et al. Proc. Nat. Acad. Sci. (USA) 84: 8120-8124, 1987) as the target cell. HIV-2 was tested using HUT78 cells (obtained from the National Institute of Health by reference to Depository Catalog, Reagent Program, Bethesda, Md.) infected with the ROD-2 isolate of HIV-2 co-cultured with uninfected H9 target cells. The infected cells were plated in 96 well plates (10^4 cells per well in RPM1 1640 medium with 10% fetal calf serum) and incubated with or without dilutions of Ps or Hy for 30 minutes at 37° C. 1×10^5 target cells were then added per well and the number of syncytia were quantitatively and qualitatively determined after 24 hours.
Also tested in a syncytia assay was a constructed cell line expressing only the envelope proteins of HIV-1 type IIIb isolate (Walker, B. D. et al., supra). These cells, designated HIV-1 env in Table 6, were treated with the indicated concentrations of Ps or Hy and incubated with uninfected Supt-1 target cells as above.

HIV [3] = experiment: Inactivation of HIV from blood of sero-positive patient, reverse transcriptase activity after culture with H9 cells; assay type: cell-based, Human Immunodeficiency Virus (HIV); conditions: Human immunodeficiency virus 1, H9, 1 h, read-out: concentration giving complete inactivation of HIV (no reverse transcriptase detected), 1 hour at 37° C., H9 cells
Protocol: In order to show the effectiveness of the compounds of the present invention in the inactivation of HIV, blood was obtained from an HIV sero-positive patient and treated with hypericin and pseudohypericin at various concentrations for 1 hour at 37° C. and incubated with uninfected H9 cells in culture. Thereafter, reverse transcriptase enzymatic activity was determined as disclosed in U.S. patent application Ser. Nos. 084,008 and 172,064 filed Aug. 10, 1987 and Mar. 23, 1988, respectively.
as §1

HIV-2 = experiment: Syncytia assay, HUT78 cells infected with ROD-2 isolate co-cultured with H9 cells; assay type: cell-based; conditions: 24 hours
Protocol: as §2

HIV [4] = experiment: Inhibition of HIV induced syncytia formation / cell fusion (summary over the assays); assay type: cell-based, Human Immunodeficiency Virus (HIV)
Protocol: as §2

HIV-1 = experiment: Syncytia assay, H9 cells infected with IIIb isolate of HIV co-cultured with Supt-1 cells; assay type: cell-based; conditions: 24 hours
Protocol: as §2

HIV [5] = conditions: cited from earlier work

For Cc1cc(O)c2c(=O)c3c(O)cc(O)c4c5c(O)cc(O)c6c(=O)c7c(O)cc(CO)c8c1c2c(c34)c(c65)c78 [pseudohypericin], the “effect on enzyme activity of purified reverse transcriptase” value [1] was “no effect”, the “effect on enzyme activity of purified reverse transcriptase” value [2] was “no effect” and the “syncytia score (number 0-4, size S/M/L)” value (HIV-1 env; 12 nanograms) was 4 L. For the same molecule, the “syncytia score (number 0-4, size S/M/L)” value (HIV-1 env; 24 nanograms) was 4 L, the “syncytia score (number 0-4, size S/M/L)” value (HIV-1 env; 47 nanograms) was 4 L and the “syncytia score (number 0-4, size S/M/L)” value (HIV-1 env; 94 nanograms) was 4 L. The “syncytia score (number 0-4, size S/M/L)” value (HIV-1 env; 188 nanograms) was 4 L, the “syncytia score (number 0-4, size S/M/L)” value (HIV-1 env; 375 nanograms) was 4 L and the “syncytia score (number 0-4, size S/M/L)” value (HIV-1 env; 750 nanograms) was 4 L. For the same molecule, the “syncytia score (number 0-4, size S/M/L)” value (HIV-1 env; 1500 nanograms) was 3 L, the “syncytia score (number 0-4, size S/M/L)” value (HIV-1 env; 3000 nanograms) was 1S and the IC100 (HIV [3]) was > 100 µg/mL. The “syncytia score (number 0-4, size S/M/L)” value (HIV-2; 12 nanograms) was 4 L, the “syncytia score (number 0-4, size S/M/L)” value (HIV-2; 24 nanograms) was 4 L and the “syncytia score (number 0-4, size S/M/L)” value (HIV-2; 47 nanograms) was 4 L. For the same molecule, the “syncytia score (number 0-4, size S/M/L)” value (HIV-2; 94 nanograms) was 4 L, the “syncytia score (number 0-4, size S/M/L)” value (HIV-2; 188 nanograms) was 4 L and the “syncytia score (number 0-4, size S/M/L)” value (HIV-2; 375 nanograms) was 4 L. For the same molecule, the “syncytia score (number 0-4, size S/M/L)” value (HIV-2; 750 nanograms) was 3 M, the “syncytia score (number 0-4, size S/M/L)” value (HIV-2; 1500 nanograms) was 2S and the “syncytia score (number 0-4, size S/M/L)” value (HIV-2; 3000 nanograms) was 2S. For the same molecule, the “inhibition of cell fusion” value (HIV [4]; compared with hypericin) was “effective but at substantially higher”, the “dose needed for similar inhibition relative to hypericin” value (HIV [4]; syncytia formation) was 20-60 fold and the “syncytia score (number 0-4, size S/M/L)” value (HIV-1; 12 nanograms) was 4 L. For the same molecule, the “syncytia score (number 0-4, size S/M/L)” value (HIV-1; 24 nanograms) was 4 L, the “syncytia score (number 0-4, size S/M/L)” value (HIV-1; 47 nanograms) was 4 L and the “syncytia score (number 0-4, size S/M/L)” value (HIV-1; 94 nanograms) was 4 L. For the same molecule, the “syncytia score (number 0-4, size S/M/L)” value (HIV-1; 188 nanograms) was 4 L, the “syncytia score (number 0-4, size S/M/L)” value (HIV-1; 375 nanograms) was 4 L and the “syncytia score (number 0-4, size S/M/L)” value (HIV-1; 750 nanograms) was 4 L. For the same molecule, the “syncytia score (number 0-4, size S/M/L)” value (HIV-1; 1500 nanograms) was 3 M and the “syncytia score (number 0-4, size S/M/L)” value (HIV-1; 3000 nanograms) was 1S.

For “nonylphenoxypolyethoxyethanol [Nonoxynol-9]”, the “concentration effective against free virus” value (HIV [5]) is given as > 0.05 % (vol/vol).
